Data on five compounds can be found in US10317409B2, “Glycosylation site-specific antibodies and anti-cancer compounds” (Detroit R&D, Inc., priority 2013, dated 2019).

The test system of assay [1] is O-GlcNAcylated c-myc in MCF-7 cells. The assay is described as follows: Western blot of O-GlcNAcylated c-myc levels in MCF-7 cells. Format: cell-based. The conditions noted are these: for O-GlcNAcylated c-myc level: MCF-7, 4 hr. The procedure:
MCF-7 breast cancer cells were treated for 24 hr with 1% DMSO, with an O-GlcNAcase inhibitor, streptozotocin (STZ), with N6-methyladenosine 5′-monophosphate (an O-GlcNAcase inhibitor discovered through by screening with the pseudofluorescent substrate 4-methylumbelliferol (4-MU)-GlcNAc (7)) or with media (control) (FIG. 5).
(§1) O-GlcNAcase inhibitors, which increased O-GlcNAcylation levels of proteins by preventing cleavage of an O-GlcNAc moiety of Ser or Thr residues, were identified using the antibodies of the present invention. MCF-7 breast cancer cells (FIG. 6. Panel A, Lanes 1-4) and MCF10A normal breast cells (FIG. 6. Panel A, Lanes 5-8) were treated for 4 hr with 1% DMSO (FIG. 6, Panel A, Lanes 1 and 5), the O-GlcNAcase inhibitors acetazolamide (FIG. 6, Panel A, Lanes 2 and 6) and N6-methyladenosine 5′-monophosphate (FIG. 6, Panel A, Lanes […] and 7) or media (control) (FIG. 6, Panel A, Lanes 4 and 8). Western blot analysis (8-16% gel) was carried out with cell lysates (20 μg/lane) using antibodies for O-GlcNAcylated c-myc (Peptide #1-G, 5,000-fold diluted).
(§2) Western blot analysis was carried out with 10% gel electrophoresis using nuclear lysates obtained from MCF-7 cells with antibodies for O-GlcNAcylated c-myc (Peptide #2-0). […] There was no increase in unmodified c-myc protein after ketoconazole treatment as verified with antibodies for unmodified c-myc (Peptide #2-N) by Western blot analysis.
MCF-7 cells were treated for 4 hr with 1% DMSO (negative control) or 2 mM ketoconazole in DMSO and an O-GlcNAcylated c-myc band was detected using a second antibody for O-GlcNAcylated c-myc (Peptide #1-G).
Background: Immunoblotting shows a protein as a band on a membrane.

Assay [2] relates to O-GlcNAcylated c-myc in MCF10A cells. Briefly: Western blot of O-GlcNAcylated c-myc levels in MCF10A cells. To be noted: 4 hr treatment, cell lysates, FIG. 6A. The class given is cell-based. The procedure:
as §1

Assay [3] concerns O-GlcNAcylated p53 in MCF-7 cells. The assay is described as follows: Western blot of O-GlcNAcylated p53 levels in MCF-7 cells. The class given is cell-based. To be noted: MCF-7, 24 hr, 2 mM, cytosol-containing supernatants, FIG. 7B. Here is the method:
MCF-7 cells were grown for 24 hr with treatment of 1% DMSO (negative control) or 2 mM STZ or acetazolamide dissolved in DMSO or 2 mM N6-methyladenosine 5′-monophosphate dissolved in media. The cells were harvested and cytosol-containing supernatants were obtained.

Assay [4] has as its system Thr-58-O-GlcNAcylated c-myc in PANC-1 cells. Briefly: Thr-58-O-GlcNAcylated c-myc expression in PANC-1 cells. The class given is cell-based. The conditions noted are these: PANC-1, after ketoconazole treatment.
Assay [5] deals with unmodified c-myc in MCF-7 cells. The assay is described as follows: Western blot of unmodified c-myc in MCF-7 cells. Format: cell-based. The conditions noted are these: MCF-7, 4 hr, 2 mM, antibody Peptide #2-N. Here is the method: as §2
Assay [6] concerns HT29 colon cancer cells. Briefly: Cell proliferation assay (MTT). The class given is cell-based, human. The source says: (§3) […] The cell number was counted after staining the cells with 3-(4,5-dimethylthiazol-2-yl)2,5-diphenyl-tetrazolium bromide (MTT).
Assay [7] relates to SW480 colon cancer cells. Briefly: Cell proliferation assay (MTT). The class given is cell-based, human.
Description: as §3

Assay [8] concerns MCF-7 and MCF10A cells. Briefly: Lactate dehydrogenase (LDH) cytotoxicity assay. The class given is cell-based. The conditions noted are these: 2 mM, 4 hr, LDH release. Here is the method: Increased O-GlcNAcylated c-myc levels in MCF-7 cells induced cell death. MCF-7 tumor cell death after 2 mM ketoconazole treatment was compared with MCF10A normal cell death by LDH cytotoxicity assay. After treatment of cells for 4 hr, extracellular media and Triton X-100 solubilized cells were obtained and oxidation of NADH to NAD+ in both fractions was monitored for 2 min at a 340 nm to obtain total (media+cells) LDH release.
A general note: LDH leaks from cells whose membrane has failed.

Assay [9] relates to Mia Paca-2 pancreatic cancer cells. Briefly: Wound healing assay (cell migration). The class given is cell-based. The conditions noted are these: Mia Paca-2, 100 μM. Here is the method: (§4) Wound healing assays were also carried out to verify inhibition of cell migration after ketoconazole treatment.
In assay [10] the test system is PANC1 pancreatic cancer cells. Briefly: Wound healing assay (cell migration). Format: cell-based. To be noted: PANC1, 100 μM. The procedure: as §4
Assay [11] deals with H1437 lung cancer cells. The assay is described as follows: Cell proliferation assay (MTT). To be noted: Homo sapiens, NCI-H1437, H1437, 50 μM for 72 hr. The class given is cell-based. The procedure:
(§5) Cell proliferation assays were carried out after seeding 3,000-5,000 cells in a 96-well plate with and without treatment of 50 μM ketoconazole dissolved in DMSO (final concentration, 1%) for 72 hr (FIG. 8, Panel A). The cell number was counted after staining the cells with 3-(4,5-dimethylthiazol-2-yl)2,5-diphenyl-tetrazolium bromide (MTT).

Assay [12] deals with Mia Paca-2 pancreatic cancer cells. Briefly: Cell proliferation assay (MTT). Format: cell-based. The conditions noted are these: Homo sapiens, Mia Paca-2, 50 μM for 72 hr. The procedure: as §5
Assay [13] deals with PANC1 cells. The assay is described as follows: Cell proliferation assay (MTT). Format: cell-based. The conditions noted are these: PANC1, same treatments, 72 hr. Here is the method: as §5
Assay [14] concerns A549 lung cancer cells. The assay is described as follows: Cell proliferation assay (MTT). Format: cell-based. To be noted: Homo sapiens, A549, 50 μM for 72 hr. Here is the method:
as §5

For assay [15], the system named is MCF-7 breast cancer cells. Briefly: Cell proliferation. Format: cell-based. The procedure:
as §5

For assay [16], the system named is HT29 colon cancer cells. The assay is described as follows: Wound healing assay (cell migration). The class given is cell-based, human. The conditions noted are these: HT29, 100 μM. Here is the method:
as §4

For assay [17], the system named is SW480 colon cancer cells. Briefly: Wound healing assay (cell migration). The class given is cell-based, human. To be noted: SW480, 100 μM. Here is the method:
as §4

The subject of assay [18] is MCF10CA1A breast cancer cells. The assay is described as follows: QCM ECMatrix cell invasion assay. The class given is cell-based. The conditions noted are these: 100 μM, 72 hr. Here is the method:
(§6) Cell invasiveness of SW480 and HT29 human colon adenocarcinoma cells and MCF10CA1A breast cancer cells with and without 72 hr treatment with 100 μM ketoconazole was studied in 24-well plates using the QCM ECMatrix cell invasion assay kit (EMD Millipore).

The subject of assay [19] is HT29 colon cancer cells. The assay is described as follows: QCM ECMatrix cell invasion assay. The conditions noted are these: HT29, 100 μM, 72 hr. The class given is cell-based, human. Here is the method:
as §6

Assay [20] has as its system SW480 colon cancer cells. Briefly: QCM ECMatrix cell invasion assay. Format: cell-based, human. The conditions noted are these: SW480, 100 μM, 72 hr. The procedure: as §6
Where [21] appears, read: MCF-7, 24 hr treatment, 2 mM, nuclear lysates, FIG. 5.
Setting [22] is: MCF-7, 4 hr treatment, cell lysates, FIG. 6A.
[23] abbreviates: 2 mM, nuclear lysates, antibody Peptide #2-G, FIG. 6B.

“Also recorded” adds a separate entry of the source.

For `CN(N=O)C(=O)N[C@H]1C(O)O[C@H](CO)[C@@H](O)[C@@H]1O` (mixture of isomers) [STZ, streptozotocin], the O-GlcNAcylated c-myc levels entry in assay [1] (setting [21]) is given as “failed to increase”.

As for `CNc1ncnc2c1ncn2[C@@H]1O[C@H](COP(=O)(O)O)[C@@H](O)[C@H]1O` [N6-methyladenosine 5′-monophosphate], the O-GlcNAcylated c-myc levels entry in assay [1] (setting [22]), in assay [1] (setting [21]) and in assay [2] was “failed to increase” each time. Also, in assay [3], the “Levels of O-GlcNAcylated p53” value was “increased”.

Consider `CC(=O)Nc1nnc(S(N)(=O)=O)s1` [acetazolamide], for which the O-GlcNAcylated c-myc levels entry in assay [1] (setting [22]) and in [2] was “failed to increase” throughout. Further, the “O-GlcNAcylated c-myc levels in nucleus” value in assay [1] (MCF-7, 24 hr, 2 mM, data not shown) is “did not increase”. Besides, the “Levels of O-GlcNAcylated p53” value in assay [3] is recorded as “increased”.

For the compound `O=C1CC2(CCCC2)CC(=O)N1CCCCN1CCN(c2ncccn2)CC1` [buspirone], the O-GlcNAcylated c-myc level entry in assay [1] (setting [23]) is “did not increase”.

In the case of `CC(=O)N1CCN(c2ccc(OCC3COC(Cn4ccnc4)(c4ccc(Cl)cc4Cl)O3)cc2)CC1` (stereo not shown) [ketoconazole], in assay [4], the Thr-58-O-GlcNAcylated c-myc expression result is on record as “failed to increase”. The unmodified c-myc protein result in [5] is on record as “no increase”. In addition, the cell proliferation result in [6] (HT29, 100 μM) is given as “inhibited”; in assay [7] (SW480, 100 μM), “inhibited”. Besides, the inhibition at 50 µM in assay [6] (Homo sapiens, HT-29, HT29, 50 μM for 72 hr, MTT) came out at 67.4%; in [7] (Homo sapiens, SW480, 50 μM for 72 hr, MTT), 63.3%; in [11], 44.9%; in assay [12], 60.2%; in [14], 51.3%. Moreover, the “increased cell death in MCF-7 cells higher than in MCF10A cells” value in assay [8] came to 84%. The inhibition at 100 µM in [9] (Homo sapiens, 24 and 48 hr, (36/46 × 100) and (43/55 × 100)) amounted to 78%; in assay [19] (Homo sapiens, HT-29, read-out: inhibition of migration in cell invasion assay) it was 100%; in assay [20] (Homo sapiens, read-out: inhibition of migration in cell invasion assay), 100%. Besides, the “% cells migrated toward a scratched field” value in assay [9] (0 hr) stood at 0%; in assay [9] (24 hr), 11.6%; in assay [9] (24 hr, listed as Ketoconazole) it was 10%; in assay [9] (48 hr) it was 12%; in [10] (0 hr) it was 0%; in assay [10] (24 hr), 6%. For the same compound, the “% cells migrated toward a scratched field” value in assay [10] (48 hr) is listed as 11%. The “inhibition of cell migration” value in assay [10] is on record as “no significant differences”. The “inhibition of cell proliferation” value in [13] is “failed to inhibit; also recorded: no significant differences”. For the same compound, the O-GlcNAcylated c-myc level entry is recorded as “dramatically increased” in [1] (setting [23]) and “dramatically increased” in [1] (2 mM, second antibody Peptide #1-G, FIG. 6C). For the same compound, the “proliferation of MCF-7 breast cancer cells” value in assay [15] is given as “inhibited”. The “Percent of cells migrated toward a scratched field” value in assay [16] (0 hr) was determined as 0%; in [16] (24 hr), 8%; in assay [17] (0 hr) it was 0%; in [17] (24 hr), 27%. In addition, the cell invasiveness result in [18] is on record as “partially inhibited”; in assay [18] (listed as Ketoconazole), “slight loss of cell invasiveness”; in assay [19], “loss of cell invasiveness”; in [20], “loss of cell invasiveness”.
